Values quoted from earlier work in patent US7361646B2, “Methods for treating gastroesophageal reflux disease” (Corcept Therapeutics, Inc., priority 2002, dated 2008).

Assays:
progesterone receptor = target: T1, progesterone receptor (Homo sapiens, UniProt P06401); conditions: result in words
T1 sequence (P06401 1-933): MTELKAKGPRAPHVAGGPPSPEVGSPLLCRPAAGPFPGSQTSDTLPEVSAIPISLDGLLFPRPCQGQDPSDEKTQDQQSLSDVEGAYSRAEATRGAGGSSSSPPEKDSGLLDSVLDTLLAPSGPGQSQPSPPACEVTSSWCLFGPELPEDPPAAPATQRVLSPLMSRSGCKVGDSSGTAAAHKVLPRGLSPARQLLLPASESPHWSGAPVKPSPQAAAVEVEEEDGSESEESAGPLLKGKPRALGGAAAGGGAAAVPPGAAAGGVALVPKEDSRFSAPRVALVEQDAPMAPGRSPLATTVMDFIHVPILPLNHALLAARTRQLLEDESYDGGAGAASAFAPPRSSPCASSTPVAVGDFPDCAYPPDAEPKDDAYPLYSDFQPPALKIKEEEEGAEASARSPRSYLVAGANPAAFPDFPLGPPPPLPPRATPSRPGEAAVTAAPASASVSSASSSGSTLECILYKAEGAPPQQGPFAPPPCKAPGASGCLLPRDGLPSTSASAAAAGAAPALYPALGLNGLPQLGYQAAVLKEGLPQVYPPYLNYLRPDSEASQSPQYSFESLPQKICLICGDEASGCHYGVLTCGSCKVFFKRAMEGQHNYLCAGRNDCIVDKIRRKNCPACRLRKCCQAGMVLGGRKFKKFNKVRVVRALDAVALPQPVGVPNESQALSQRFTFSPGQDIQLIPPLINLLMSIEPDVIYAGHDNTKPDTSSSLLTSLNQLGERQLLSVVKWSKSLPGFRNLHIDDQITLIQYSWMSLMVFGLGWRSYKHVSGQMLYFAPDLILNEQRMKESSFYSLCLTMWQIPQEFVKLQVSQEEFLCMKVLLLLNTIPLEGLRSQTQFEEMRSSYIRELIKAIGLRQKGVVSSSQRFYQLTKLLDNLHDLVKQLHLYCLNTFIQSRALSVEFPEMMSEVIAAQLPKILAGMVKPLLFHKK

[1] = target: T2, glucocorticoid (GR) receptors (Homo sapiens, UniProt P04150); conditions: result in words
T2 sequence (P04150 1-777): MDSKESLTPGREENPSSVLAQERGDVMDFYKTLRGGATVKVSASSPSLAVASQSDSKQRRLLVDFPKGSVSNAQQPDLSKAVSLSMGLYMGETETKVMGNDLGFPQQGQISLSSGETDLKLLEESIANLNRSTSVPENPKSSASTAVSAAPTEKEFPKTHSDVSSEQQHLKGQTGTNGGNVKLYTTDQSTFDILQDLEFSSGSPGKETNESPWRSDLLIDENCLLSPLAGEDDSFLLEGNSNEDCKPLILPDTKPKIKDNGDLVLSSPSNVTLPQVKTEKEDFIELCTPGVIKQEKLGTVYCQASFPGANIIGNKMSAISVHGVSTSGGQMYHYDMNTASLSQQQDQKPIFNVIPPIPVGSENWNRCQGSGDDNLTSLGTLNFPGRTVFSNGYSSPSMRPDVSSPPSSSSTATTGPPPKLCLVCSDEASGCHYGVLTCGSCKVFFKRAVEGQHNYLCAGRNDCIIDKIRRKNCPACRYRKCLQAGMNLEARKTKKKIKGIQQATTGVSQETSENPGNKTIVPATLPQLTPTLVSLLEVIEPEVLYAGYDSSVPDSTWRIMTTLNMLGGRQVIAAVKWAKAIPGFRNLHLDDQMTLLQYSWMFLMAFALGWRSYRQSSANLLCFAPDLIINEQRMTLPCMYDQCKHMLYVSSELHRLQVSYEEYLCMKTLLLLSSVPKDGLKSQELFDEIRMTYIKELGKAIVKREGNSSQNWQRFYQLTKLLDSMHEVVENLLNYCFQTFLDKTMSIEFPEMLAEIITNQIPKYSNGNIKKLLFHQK

[2] = in one study (Kawai)
[3] = target: T3, Mineralocorticoid receptors (MRs) (Homo sapiens, UniProt P08235); conditions: MR versus GR
T3 sequence (P08235 1-984): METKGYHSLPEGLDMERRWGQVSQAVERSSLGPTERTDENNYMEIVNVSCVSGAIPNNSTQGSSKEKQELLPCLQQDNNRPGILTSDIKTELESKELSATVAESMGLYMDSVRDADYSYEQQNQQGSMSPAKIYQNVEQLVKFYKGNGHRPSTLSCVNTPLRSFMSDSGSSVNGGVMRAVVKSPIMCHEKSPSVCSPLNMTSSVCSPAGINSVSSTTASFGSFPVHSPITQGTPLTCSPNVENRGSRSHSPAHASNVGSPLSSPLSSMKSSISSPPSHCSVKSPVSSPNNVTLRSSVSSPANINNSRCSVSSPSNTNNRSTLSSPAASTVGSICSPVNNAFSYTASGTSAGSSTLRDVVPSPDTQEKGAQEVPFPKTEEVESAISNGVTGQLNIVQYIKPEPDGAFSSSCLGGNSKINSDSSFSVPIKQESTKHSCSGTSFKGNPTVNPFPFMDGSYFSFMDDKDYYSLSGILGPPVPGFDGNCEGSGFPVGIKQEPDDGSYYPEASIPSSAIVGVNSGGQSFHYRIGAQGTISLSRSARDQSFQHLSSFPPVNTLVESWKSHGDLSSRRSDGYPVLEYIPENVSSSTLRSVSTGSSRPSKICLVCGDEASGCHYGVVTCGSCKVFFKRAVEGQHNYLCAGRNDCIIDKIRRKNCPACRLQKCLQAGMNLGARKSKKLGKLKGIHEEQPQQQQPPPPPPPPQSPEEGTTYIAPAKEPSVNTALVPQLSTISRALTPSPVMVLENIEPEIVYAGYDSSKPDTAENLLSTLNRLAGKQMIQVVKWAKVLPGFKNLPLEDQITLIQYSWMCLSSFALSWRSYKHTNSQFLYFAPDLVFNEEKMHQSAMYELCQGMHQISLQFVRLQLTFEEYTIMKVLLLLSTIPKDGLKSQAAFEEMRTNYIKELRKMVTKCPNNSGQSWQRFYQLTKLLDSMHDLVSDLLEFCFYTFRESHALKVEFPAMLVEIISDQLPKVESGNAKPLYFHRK

| SMILES | progesterone receptor antagonist effect (progesterone receptor) | GR antagonist effect [1] | share of the daily dose excreted in the urine [2] | affinity of MRs for cortisol relative to GRs for glucocorticoids [3] |
| --- | --- | --- | --- | --- |
| CC#C[C@]1(O)CC[C@H]2[C@@H]3CCC4=CC(=O)CCC4=C3[C@@H](c3ccc(N(C)C)cc3)C[C@@]21C [Mifepristone, (11β,17β) 11[4(dimethylamino)phenyl]-17hydroxy-17(1 propynyl)estra-4,9dien-3one] | powerful antagonist | powerful antagonist | less than 0.5 % of the daily dose | – |
| CC#C[C@]1(O)CC[C@H]2[C@@H]3CCC4=CC(=O)CCC4=C3[C@@H](c3ccc(OCCN(C)C)cc3)C[C@@]21C [RU009, 11β-(4-dimethylaminoethoxyphenyl)-17α-propynyl-17β-hydroxy-4,9-estradien-3-one] | – | shown to have GR antagonist effects | – | – |
| C[C@]12CCC(=O)C=C1CC[C@@H]1[C@@H]2[C@@H](O)C[C@@]2(C)[C@H]1CC[C@]2(O)C(=O)CO [cortisol] | – | – | – | ten-fold higher affinity |
